In US20190119193A1, “COMPOSITION FOR REGULATING PLANT GROWTH, METHOD FOR TREATING PLANTS THEREWITH, AND ACTIVE INGREDIENT THEREOF” (Ivan Aleksandrovich Starikov, priority 2016, published 2019):
Values belong to the compound of their own block, whether it stands above or below them.

What was measured:
[1] = Dilution of DMSO solution (10 g/L) in water; assay type: physicochemical; conditions: solution in DMSO (10 g/L) diluted in large quantities of water
[2] = system: spring wheat of “Zlata” variety; test: Field tests of GS-200 on wheat; assay type: in vivo
Protocol: After that GS-200 were dissolved in dimethyl sulfoxide to give solution of 10 g/L concentration, then water was added to give aqueous solutions of GS-200 with concentrations of 5.3·10^−7 M, 1.7·10^−8 M, 5.3·10^−9 M, 1.7·10^−10 M, 5.3·10^−11 M, 1.7·10^−12 M.
The field tests of the obtained aqueous solutions of GS-200 on spring wheat of “Zlata” variety were carried out. The tests were carried out in agroclimatic zone I, on the experimental field of the Moscow RIA «Nemchinovka» Agricultural technology center's Laboratory for the Development of Grain Protection Systems (Moscow region, Odintsovo district, Novoivanovskoe, 2017), according to the method adopted for registration tests of plant growth regulators: Methodology guidelines for approval tests of new fertilizers, bioregulators and plant regulators. Moscow-Vladimir, 2009, p. 104; State procedure of strain tests for agricultural crop. Corny, leguminous and forage cultures. Edition 1, M., 1985—p. 269, Edition 2, M., 1989—p. 194; State procedure of strain tests for agricultural crop. Corny, leguminous and forage cultures. Edition 1, M., 1985—p. 269, Edition 2, M., 1989—p. 194; All-Union Standard 10-108-87; All-Union State Standard 26212-91; All-Union State Standard 26207-91; All-Union Standard 10-108-87.
The soil of the testing ground is sod-podzolic on the covering silt. The depth of the topsoil is 27-30 centimeters, humus content is up to 2.2%, pHsalt is about 5.8-5.9, labile phosphorus index is 135-145 mg/kg, and exchange potassium index is 100-110 mg/kg.
Tests were conducted from Apr. 24 to Aug. 17, 2017. The weather conditions of the whole growing period were highly unfavorable (normal amount of precipitations was exceeded more than one and a half times; the temperature was much lower than long-term annual average), which is a strong stress factor.
Control test—without treatment with growth regulators.
Area of experimental plots—50 m^2, accounting area—40 m^2. Fourfold replication of the experiments.
Preceding crop was winter wheat. Immediately after the autumn harvesting of winter crops the area was treated with disc harrow to a depth of 10-12 cm. Then, fall plowing to a depth of 18-21 cm by a reverse plow and harrowing were carried out.
Before seeding the test crop, the soil was fertilized with nitrogen-phosphorus-potassium fertilizer in a dose of N64P64K64. Date of sowing: Apr. 24, 2017. Seeding rate: 5.5 million of germinated grains per 1 hectare.
Before seeding, all the seeds were treated with “Vincite Forte” fungicide with a consumption rate of 0.8 L per ton of seeds, as well as the aqueous solution of GS-200 selected for the experiment with a consumption rate of 10 L per ton of seeds (this aqueous solution was directly used as a liquid for treatment) or without a growth regulator, depending on the experiment. The following concentrations of the GS-200 solutions were used for treatment: 5.3·10^−7 M, 5.3·10^−9 M, […].
At the tillering phase (May 29-30) the crops were sprayed against weeds with “Linthur” herbicide at a dose of 175.0 g/ha. In the beginning of booting stage (June 12-13), in order to prevent blasts and leaf diseases, crops were sprayed with tank mixture of insecticide “BoreiNeo” in a dose 0.5 L/ha and fungicide “Alto Super” in a dose 0.5 L/ha. In the beginning of ear stage (June 28) crops on the testing ground were sprayed with tank mixture of fungicide “Rakurs” (against Septoria blight and Fusarium blight) in a dose 0.5 L/ha and a solution of GS-200 in a dose 300 L/ha. Spraying with aqueous solutions of GS-200 was carried out for all variants, where GS-200 were used for seed treatment. The concentration of the spraying solution was one-thirtieth of the concentration of the solution previously used for treatment of seeds: 1.7·10^−8 M, 1.7·10^−10 M and 1.7·10^−12 M respectively.
Harvesting of experimental plots was carried out on August 17, before harvesting test sheaves of 0.25 m^2 of each variant of the experiment were selected for structural analysis. […]

[3] = seeds treated 5.3 · 10^−7 M, sprayed 1.7·10^−8 M
[4] = seeds treated 5.3 · 10^−9 M, sprayed 1.7·10^−10 M
[5] = seeds treated 5.3 · 10^−11 M, sprayed 1.7·10^−12 M

Appearance on dilution in water [1]: clear solution
Structure (SMILES): CCOC(=O)C(=O)C(Sc1ccc(C)cc1)C(=O)OCC (centres unmarked) [GS-184, Diethyl 2-[(4-Methylphenyl)Sulfanyl]-3-Oxobutanedioate]

Appearance on dilution in water [1]: clear solution
Structure (SMILES): CCOC(=O)CC(=O)C(=O)OCC [GS-195, Diethyl ester of oxaloacetic acid]

Appearance on dilution in water [1]: clear solution
Structure (SMILES): CCOC(=O)C(=O)C(C(=O)OCC)c1ccccc1 (centres unmarked) [GS-199, Diethyl 2-oxo-3-phenylbutanedioate]

Appearance on dilution in water [1]: clear solution
Structure (SMILES): CCOC(=O)C(=O)CC(=O)N(CC)CC [GS-202, Ethyl 4-(diethylamino)-2,4-dioxobutanoat]

Appearance on dilution in water [1]: clear solution
Structure (SMILES): CN(C)C(=O)C(=O)CC(=O)N(C)CCO [GS-214, N^4-(2-hydroxyethyl)-N^1,N^1,N^4-trimethyl-2-oxobutanediamide]

Appearance on dilution in water [1]: clear solution
Structure (SMILES): CCOC(=O)C(=O)CC(C)=O [GS-300, Ethyl 2,4-dioxovalerate]

Appearance on dilution in water [1]: clear solution
Structure (SMILES): CCOC(=O)C(=O)CC(=O)c1ccccc1 [GS-310, Ethyl 2,4-dioxo-4-phenylbutanoate]

Appearance on dilution in water [1]: bright yellow fluorescent suspension
Structure (SMILES): CCOC(=O)C(=O)CC(=O)c1c[nH]c2ccccc12 [GS-312, Ethyl 4-(1H-indol-3-yl)-2,4-dioxobutanoate]

More lines, now with the values behind:

Structure (SMILES): COC(=O)C(=O)C(C)C(=O)OC (centres unmarked) [GS-171, Dimethyl 2-methyl-3-oxobutanedioate]
Appearance on dilution in water [1]: clear solution

Structure (SMILES): COC(=O)C(=O)C(Cl)C(=O)OC (centres unmarked) [GS-172, Dimethyl 2-chloro-3-oxobutanedioate]
Appearance on dilution in water [1]: clear solution

Structure (SMILES): CCOC(=O)CC(=O)C(=O)O [GS-197, 4-Ethoxy-2,4-dioxobutanoic acid]
Appearance on dilution in water [1]: clear solution

Structure (SMILES): CCOC(=O)C(=O)CC(=O)N(C)C [GS-200, Ethyl 4-(dimethylamino)-2,4-dioxobutanoat]
1000 grains weight [2, 3]: 45.4 g
Gluten [2, 3]: 27.5 % dry basis
Main head length [2, 3]: 8.24 cm
Number of seeds from main head [2, 3]: 38.84 pcs
Number of spikelets in main head [2, 3]: 15.88 pcs
Number of stems [2, 3]: 450 pcs/m^2
Number of yielding stems [2, 3]: 398 pcs/m^2
Plant height [2, 3]: 121.1 cm
Productive tilling capacity [2, 3]: 1.46
Protein (N 5.7) [2, 3]: 12.21 % dry basis
Starch [2, 3]: 58.40 % dry basis
Total tilling capacity [2, 3]: 1.65
Weight of grains from main head [2, 3]: 1.89 g
Yield [2, 3]: 5.34 t/ha
Yield, % (comparing to control) [2, 3]: 124.8%
1000 grains weight [2, 4]: 47.2 g
Gluten [2, 4]: 26.0 % dry basis
Main head length [2, 4]: 8.20 cm
Number of seeds from main head [2, 4]: 37.40 pcs
Number of spikelets in main head [2, 4]: 15.56 pcs
Number of stems [2, 4]: 462 pcs/m^2
Number of yielding stems [2, 4]: 388 pcs/m^2
Plant height [2, 4]: 118.5 cm
Productive tilling capacity [2, 4]: 1.53
Protein (N 5.7) [2, 4]: 11.56 % dry basis
Starch [2, 4]: 58.66 % dry basis
Total tilling capacity [2, 4]: 1.82
Weight of grains from main head [2, 4]: 1.90 g
Yield [2, 4]: 5.37 t/ha
Yield, % (comparing to control) [2, 4]: 125.5%
1000 grains weight [2, 5]: 44.1 g
Gluten [2, 5]: 26.6 % dry basis
Main head length [2, 5]: 7.56 cm
Number of seeds from main head [2, 5]: 34.28 pcs
Number of spikelets in main head [2, 5]: 15.56 pcs
Number of stems [2, 5]: 398 pcs/m^2
Number of yielding stems [2, 5]: 360 pcs/m^2
Plant height [2, 5]: 118.7 cm
Productive tilling capacity [2, 5]: 1.71
Protein (N 5.7) [2, 5]: 11.82 % dry basis
Starch [2, 5]: 59.05 % dry basis
Total tilling capacity [2, 5]: 1.90
Weight of grains from main head [2, 5]: 1.60 g
Yield [2, 5]: 4.65 t/ha
Yield, % (comparing to control) [2, 5]: 108.6%
Appearance on dilution in water [1]: clear solution

Structure (SMILES): CCN(CC)C(=O)CC(=O)C(N)=O [GS-203, N^4,N^4-Diethyl-2-oxobutanediamide]
Appearance on dilution in water [1]: clear solution

Structure (SMILES): COC(=O)C1CNC(=O)C1=O (centres unmarked) [GS-500, Methyl 4,5-dioxopyrrolidine-3-carboxylate]
Appearance on dilution in water [1]: clear solution
